Source: ChEMBL document CHEMBL1151671, “Cytotoxic oxygenated desmosterols of the red alga Galaxaura marginata” (1996)
≈ marks a conversion by molar mass, not a printed value.

How the values were obtained:
Format in all cases: functional
Conditions in all cases: read-out: ED50 (the source's name)
[1] = tested on: KB; assay: Cytotoxicity against human KB cells by MTT assay
[2] = tested on: P388; assay: Cytotoxicity against mouse P388 cells by MTT assay
[3] = tested on: HT-29; assay: Cytotoxicity against human HT29 cells by MTT assay
[4] = tested on: A549; assay: Cytotoxicity against human A549 cells by MTT assay

How did the EC50 [1] turn out when `C=C(C)C(CC[C@@H](C)[C@H]1CC[C@H]2[C@@H]3CC=C4C[C@@H](O)CC[C@]4(C)[C@H]3CC[C@]12C)OO` (stereo partly specified) was run?
Its EC50 is 0.33 µg/mL (≈ 0.792 µM).

What about the EC50 [2] of the same compound?
Its EC50 is 0.26 µg/mL (≈ 0.624 µM).

What about the EC50 [3] of the same compound?
Its EC50 is 0.43 µg/mL (≈ 1.03 µM).

What about the EC50 [4] of the same compound?
Its EC50 is 0.64 µg/mL (≈ 1.54 µM).

For `C[C@H](C/C=C/C(C)(C)OO)[C@H]1CC[C@H]2[C@@H]3CC=C4C[C@@H](O)CC[C@]4(C)[C@H]3CC[C@]12C`, which EC50 [2] is on record?
The EC50 was 0.22 µg/mL (≈ 0.528 µM).

Which results are given for `C[C@H](C/C=C/C(C)(C)O)[C@H]1CC[C@H]2[C@@H]3CC=C4C[C@@H](O)CC[C@]4(C)[C@H]3CC[C@]12C`?
EC50 [1]: 0.61 µg/mL (≈ 1.52 µM); EC50 [2]: 0.15 µg/mL (≈ 0.374 µM); EC50 [3]: 0.6 µg/mL (≈ 1.5 µM); EC50 [4]: 1.08 µg/mL (≈ 2.7 µM)

With `C=C(C)C(O)CC[C@@H](C)[C@H]1CC[C@H]2[C@@H]3CC=C4C[C@@H](O)CC[C@]4(C)[C@H]3CC[C@]12C` (stereo partly specified) as the compound, how does the EC50 [1] read?
The EC50 was 0.67 µg/mL (≈ 1.67 µM).

What about the EC50 [2] of the same compound?
The EC50 was 0.36 µg/mL (≈ 0.899 µM).

And the EC50 [3]?
The EC50 was 0.37 µg/mL (≈ 0.924 µM).

What about the EC50 [4] of the same compound?
The EC50 was 1.61 µg/mL (≈ 4.02 µM).

With `C[C@H](CCC1OC1(C)C)[C@H]1CC[C@H]2[C@@H]3C[C@@H](O)C4=CC(=O)CC[C@]4(C)[C@H]3CC[C@]12C` (mixture of isomers) as the compound, how does the EC50 [1] read?
Its EC50 is 0.3 µg/mL.

And the EC50 [2]?
Its EC50 is 0.75 µg/mL.

What about the EC50 [3] of the same compound?
Its EC50 is 0.87 µg/mL.

What about the EC50 [4] of the same compound?
Its EC50 is 3.14 µg/mL.

With `CC(C)=CCC[C@@H](C)[C@H]1CC[C@H]2[C@@H]3CC=C4C[C@@H](O)CC[C@]4(C)[C@H]3CC[C@]12C` [DESMOSTEROL] as the compound, how does the EC50 [1] read?
Its EC50 is greater than 50 µg/mL.

What about the EC50 [2] of the same compound?
The EC50 was 33.5 µg/mL (≈ 87.2 µM).

What about the EC50 [3] of the same compound?
Its EC50 is greater than 50 µg/mL.

And the EC50 [4]?
Its EC50 is greater than 50 µg/mL.
